Source: patent publication US12037324B2, “Biarylmethyl heterocycles” (Université de Montréal, priority 2016, dated 2024)

Key:
[1] = biological target: T1, hAT1R (Homo sapiens, UniProt P30556); test: BRET β-arrestin2 biosensor assay, higher receptor expression (hAT1R 5 ng/well), HEK293 cells; format: cell-based; details: for EC50: High AT1R Expression
T1 sequence (P30556 1-359): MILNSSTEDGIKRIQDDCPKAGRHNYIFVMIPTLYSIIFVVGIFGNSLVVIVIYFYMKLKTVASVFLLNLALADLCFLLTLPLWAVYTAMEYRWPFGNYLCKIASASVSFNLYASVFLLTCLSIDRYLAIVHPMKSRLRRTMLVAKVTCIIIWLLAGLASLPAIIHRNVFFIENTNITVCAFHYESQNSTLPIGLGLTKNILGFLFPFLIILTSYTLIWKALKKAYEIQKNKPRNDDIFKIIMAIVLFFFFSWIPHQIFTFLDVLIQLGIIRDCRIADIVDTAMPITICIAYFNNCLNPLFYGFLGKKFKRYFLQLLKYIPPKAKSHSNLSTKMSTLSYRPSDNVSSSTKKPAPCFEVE

[2] = biological target: T1, hAT1R; test: cell-based
[3] = biological target: T2, AGTR1 (Homo sapiens, UniProt P30556); test: DiscoveRx β-arrestin2 recruitment assay (enzyme complementation, Pathunter CHO-K1 AGTR1 β-arrestin cell line); format: cell-based; details: DiscoveRx β-arrestin2 recruitment; for DiscoveRx β-arrestin2 Ymax (%): maximal response
T2 construct: host or cells: Pathunter CHO-K1 AGTR1 β-arrestin cell line (CHO-K1)
T2 sequence (P30556 1-359): T1 sequence (P30556 1-359)
Summary of the method: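 CHO-K1 cells expressing AGTR1 with β-arrestin2 enzyme-complementation reporter, plated 14-16 h ahead in 1% serum medium, then exposed to compounds for 90 min at 37° C. Chemiluminescence read after 1 h detection. EC50 (agonist) or IC50 (antagonist) from 4-parameter logistic fit; activity as percentage of All maximal effect.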

[4] = biological target: T2, AGTR1; test: DiscoveRx IP1 accumulation assay (HTRF), agonist mode, Pathunter CHO-K1 AGTR1 β-arrestin cell line; format: cell-based; details: for EC50: read-out: IP-1 EC50
Summary of the method: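 Agonist mode in CHO-K1 AGTR1 β-arrestin cells plated 14-16 h before; compounds at varying concentrations for 90 min at 37° C, IP1 accumulation read by HTRF (D2-conjugate and anti-IP1 cryptate, 20 min room temperature). EC50 from 4-parameter logistic fit; activity given as percentage of maximal AII effect.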

[5] = biological target: T1, hAT1R; test: cell-based; details: agonist mode
[6] = Low AT1R Expression, read-out: BRET β-Arrestin2 Low AT1R Expression EC50

SMILES | BRET β-Arrestin2 High AT1R Expression Ymax (%) [1] [%] | EC50 [1] [nM] | BRET β-Arrestin2 Low AT1R Expression Ymax (%) ([2]; Low AT1R Expression) | EC50 [2, 6] [nM] | EC50 [3] [nM] | DiscoveRx β-arrestin2 Ymax (%) [3] [%] | IP-1 Ymax (%) [4] [%] | EC50 [4] [nM] | BRET P63 Ymax [5] [%] | EC50 ([5]; read-out: BRET P63 EC50) [nM] | EC50 ([2]; section of the 42nd table ending at r951, example numbering restarts after the DiscoveRx section, read-out: β-arrestin2 EC50) [nM]
CCCCC1=NC2(CCOC2)C(=O)N1Cc1ccc(-c2cc(-c3ccccc3F)ccc2-c2nnn[nH]2)cc1 (single isomer, unassigned) [Example 148] | 72.8 | 90.4 | 17.7 | 141 | 103 | 34.8 | 6.1 |  |  |  | 
CCCCC1=NC2(CCOC2)C(=O)N1Cc1ccc(-c2cc(-c3ccccc3F)ccc2-c2nnn[nH]2)cc1 (single isomer, unassigned) [Example 149] | 85.7 | 24.1 | 42.1 | 82.7 | 38.9 | 55.2 | 7.5 | 143 |  |  | 
CC1=NC2(CCOC2)C(=O)N1Cc1ccc(-c2cc(-c3ccccc3)ccc2-c2nn[nH]n2)cc1 (single isomer, unassigned) [Example 174, 3-((6′-(2H-tetrazol-5-yl)-[1,1′:3′,1″-terphenyl]-4-yl)methyl)-2-methyl-7-oxa-1,3-diazaspiro[4.4]non-1-en-4-one] |  |  |  |  |  |  |  |  | 10.3 | 770 | 634
CCc1nc2c(C)cc(C)nc2n1Cc1ccc(-c2cc(-c3ccccc3OC(F)(F)F)ccc2-c2nn[nH]n2)cc1 [Example 1] | 86.9 | 7.2 | 61.8 | 29.5 | 15.5 | 44.1 | 18.7 | 20.7 |  |  | 
CCc1nc2c(C)cc(C)nc2n1Cc1ccc(-c2cc(-c3ccccc3C(C)C)ccc2-c2nn[nH]n2)cc1 [Example 3] | 79.6 | 14.9 | 30.6 | 24.2 | 21.2 | 22.9 | 29.9 | 45600 |  |  | 
CCc1nc2c(C)cc(C)nc2n1Cc1ccc(-c2cc(-c3ccccc3OC)ccc2-c2nn[nH]n2)cc1 [Example 5] | 76.2 | 16 | 22.9 | 12.1 | 14.5 | 30.9 | 15.1 | 23.8 |  |  | 
CCc1nc2c(C)cc(C)nc2n1Cc1ccc(-c2cc(-c3ccc(C(=O)N(C)C)cc3)ccc2-c2nn[nH]n2)cc1 [Example 11] | 79.2 | 22 | 16.9 | 35.3 | 9.9 | 36.3 | 3.8 | 17.8 |  |  | 
CCc1nc2c(C)cc(C)nc2n1Cc1ccc(-c2cc(-c3ccccc3F)ccc2-c2nn[nH]n2)cc1 [Example 19] | 89.8 | 2.4 | 73.7 | 12.1 | 7.5 | 57.9 | 12.2 | 27.4 |  |  | 
CCc1nc2c(C)cc(C)nc2n1Cc1ccc(-c2cc(-c3cccnc3OC)ccc2-c2nn[nH]n2)cc1 [Example 24, 2-ethyl-3-((5′-(2-methoxypyridin-3-yl)-2′-(2H-tetrazol-5-yl)-[1,1′-biphenyl]-4-yl)methyl)-5,7-dimethyl-3H-imidazo[4,5-b]pyridine] | 73.1 | 13.5 | 21.6 | 13.9 | 13.4 | 24.1 | 14.5 | 20.7 |  |  | 
CCc1nc2c(C)cc(C)nc2n1Cc1ccc(-c2cc(-c3cccc(OC)n3)ccc2-c2nn[nH]n2)cc1 [Example 29] | 82.7 | 11.3 | 42.2 | 18.9 | 8.6 | 29.8 | 12.1 | 38.7 |  |  | 
CCc1nc2c(C)cc(C)nc2n1Cc1ccc(-c2cc(-c3ccccc3)ccc2C(=O)O)cc1 [Example 31, 4″-((2-ethyl-5,7-dimethyl-3H-imidazo[4,5-b]pyridin-3-yl)methyl)-[1,1′:3′,1″-terphenyl]-4′-carboxylic acid] | 85.5 | 58.2 | 42.4 | 84.7 | 33.9 | 55.1 | 12.3 | 234 |  |  | 
